# From the supplement of paper PMC8882468
# Tested on: HCI-019 (organoid from a triple-negative breast cancer xenograft)
# Assay: CTG-3D luminescence at 96 h relative to day-0 seeding control (ratio to day 0); higher = more growth / less cytotoxicity; PDxO 3D drug screen, 96 h, CTG-3D normalised to day-0 seeding control.
# Settings: 0.00025 µM; days in culture: 152
row,Structure (SMILES),CTG-3D luminescence at 96 h
1,C[C@H](NC(=O)CCC(F)(F)F)C(=O)N[C@@H]1C(=O)N(CCO)c2ncccc2-c2ccccc21 [crenigacestat],3.39
2,COc1cccc2c1C(=O)c1c(O)c3c(c(O)c1C2=O)C[C@@](O)(C(=O)CO)C[C@@H]3O[C@H]1C[C@H](N)[C@H](O)[C@H](C)O1 [doxorubicin],3.12
3,C[C@]12CC[C@@H]3c4ccc(O)cc4C[C@@H](CCCCCCCCC[S+]([O-])CCCC(F)(F)C(F)(F)F)[C@H]3[C@@H]1CC[C@@H]2O (stereo partly specified) [fulvestrant],3
4,Nc1ccn([C@@H]2O[C@H](CO)[C@@H](O)C2(F)F)c(=O)n1 [gemcitabine],4.1
5,C=CC(=O)N1CCC[C@@H](n2nc(-c3ccc(Oc4ccccc4)cc3)c3c(N)ncnc32)C1 [ibrutinib],3.16
6,CN(Cc1cnc2nc(N)nc(N)c2n1)c1ccc(C(=O)N[C@@H](CCC(=O)O)C(=O)O)cc1 [methotrexate],2.23
7,CC1(C)CCC(c2ccc(Cl)cc2)=C(CN2CCN(c3ccc(C(=O)NS(=O)(=O)c4ccc(N[C@H](CCN5CCOCC5)CSc5ccccc5)c(S(=O)(=O)C(F)(F)F)c4)cc3)CC2)C1 [navitoclax],2.49
8,NC(=O)c1cccc2cn(-c3ccc([C@@H]4CCCNC4)cc3)nc12 [niraparib],2.16

# Same assay, conditions: 0.005 µM; days in culture: 110
row,Structure (SMILES),CTG-3D luminescence at 96 h
1,C[C@H](NC(=O)CCC(F)(F)F)C(=O)N[C@@H]1C(=O)N(CCO)c2ncccc2-c2ccccc21 [crenigacestat],1.75
2,COc1cccc2c1C(=O)c1c(O)c3c(c(O)c1C2=O)C[C@@](O)(C(=O)CO)C[C@@H]3O[C@H]1C[C@H](N)[C@H](O)[C@H](C)O1 [doxorubicin],1.49
3,C[C@]12CC[C@@H]3c4ccc(O)cc4C[C@@H](CCCCCCCCC[S+]([O-])CCCC(F)(F)C(F)(F)F)[C@H]3[C@@H]1CC[C@@H]2O (stereo partly specified) [fulvestrant],1.89
4,Nc1ccn([C@@H]2O[C@H](CO)[C@@H](O)C2(F)F)c(=O)n1 [gemcitabine],0.347
5,C=CC(=O)N1CCC[C@@H](n2nc(-c3ccc(Oc4ccccc4)cc3)c3c(N)ncnc32)C1 [ibrutinib],1.32
6,CN(Cc1cnc2nc(N)nc(N)c2n1)c1ccc(C(=O)N[C@@H](CCC(=O)O)C(=O)O)cc1 [methotrexate],1.69
7,CC1(C)CCC(c2ccc(Cl)cc2)=C(CN2CCN(c3ccc(C(=O)NS(=O)(=O)c4ccc(N[C@H](CCN5CCOCC5)CSc5ccccc5)c(S(=O)(=O)C(F)(F)F)c4)cc3)CC2)C1 [navitoclax],1.56
8,NC(=O)c1cccc2cn(-c3ccc([C@@H]4CCCNC4)cc3)nc12 [niraparib],1.18

# Same assay, conditions: 0.005 µM; days in culture: 131
row,Structure (SMILES),CTG-3D luminescence at 96 h
1,C[C@H](NC(=O)CCC(F)(F)F)C(=O)N[C@@H]1C(=O)N(CCO)c2ncccc2-c2ccccc21 [crenigacestat],1.97
2,COc1cccc2c1C(=O)c1c(O)c3c(c(O)c1C2=O)C[C@@](O)(C(=O)CO)C[C@@H]3O[C@H]1C[C@H](N)[C@H](O)[C@H](C)O1 [doxorubicin],2.31
3,C[C@]12CC[C@@H]3c4ccc(O)cc4C[C@@H](CCCCCCCCC[S+]([O-])CCCC(F)(F)C(F)(F)F)[C@H]3[C@@H]1CC[C@@H]2O (stereo partly specified) [fulvestrant],2.72
4,Nc1ccn([C@@H]2O[C@H](CO)[C@@H](O)C2(F)F)c(=O)n1 [gemcitabine],0.976
5,C=CC(=O)N1CCC[C@@H](n2nc(-c3ccc(Oc4ccccc4)cc3)c3c(N)ncnc32)C1 [ibrutinib],2.31
6,CN(Cc1cnc2nc(N)nc(N)c2n1)c1ccc(C(=O)N[C@@H](CCC(=O)O)C(=O)O)cc1 [methotrexate],2.83
7,CC1(C)CCC(c2ccc(Cl)cc2)=C(CN2CCN(c3ccc(C(=O)NS(=O)(=O)c4ccc(N[C@H](CCN5CCOCC5)CSc5ccccc5)c(S(=O)(=O)C(F)(F)F)c4)cc3)CC2)C1 [navitoclax],3.23
8,NC(=O)c1cccc2cn(-c3ccc([C@@H]4CCCNC4)cc3)nc12 [niraparib],2.98

# Same assay, conditions: 0.005 µM; days in culture: 152
row,Structure (SMILES),CTG-3D luminescence at 96 h
1,C[C@H](NC(=O)CCC(F)(F)F)C(=O)N[C@@H]1C(=O)N(CCO)c2ncccc2-c2ccccc21 [crenigacestat],2.6
2,COc1cccc2c1C(=O)c1c(O)c3c(c(O)c1C2=O)C[C@@](O)(C(=O)CO)C[C@@H]3O[C@H]1C[C@H](N)[C@H](O)[C@H](C)O1 [doxorubicin],2.32
3,C[C@]12CC[C@@H]3c4ccc(O)cc4C[C@@H](CCCCCCCCC[S+]([O-])CCCC(F)(F)C(F)(F)F)[C@H]3[C@@H]1CC[C@@H]2O (stereo partly specified) [fulvestrant],3.24
4,Nc1ccn([C@@H]2O[C@H](CO)[C@@H](O)C2(F)F)c(=O)n1 [gemcitabine],0.623
5,C=CC(=O)N1CCC[C@@H](n2nc(-c3ccc(Oc4ccccc4)cc3)c3c(N)ncnc32)C1 [ibrutinib],2.83
6,CN(Cc1cnc2nc(N)nc(N)c2n1)c1ccc(C(=O)N[C@@H](CCC(=O)O)C(=O)O)cc1 [methotrexate],2.89
7,CC1(C)CCC(c2ccc(Cl)cc2)=C(CN2CCN(c3ccc(C(=O)NS(=O)(=O)c4ccc(N[C@H](CCN5CCOCC5)CSc5ccccc5)c(S(=O)(=O)C(F)(F)F)c4)cc3)CC2)C1 [navitoclax],3.21
8,NC(=O)c1cccc2cn(-c3ccc([C@@H]4CCCNC4)cc3)nc12 [niraparib],1.69

# Same assay, conditions: 0.1 µM; days in culture: 110
row,Structure (SMILES),CTG-3D luminescence at 96 h
1,C[C@H](NC(=O)CCC(F)(F)F)C(=O)N[C@@H]1C(=O)N(CCO)c2ncccc2-c2ccccc21 [crenigacestat],2.18
2,COc1cccc2c1C(=O)c1c(O)c3c(c(O)c1C2=O)C[C@@](O)(C(=O)CO)C[C@@H]3O[C@H]1C[C@H](N)[C@H](O)[C@H](C)O1 [doxorubicin],1.03
3,C[C@]12CC[C@@H]3c4ccc(O)cc4C[C@@H](CCCCCCCCC[S+]([O-])CCCC(F)(F)C(F)(F)F)[C@H]3[C@@H]1CC[C@@H]2O (stereo partly specified) [fulvestrant],2.26
4,Nc1ccn([C@@H]2O[C@H](CO)[C@@H](O)C2(F)F)c(=O)n1 [gemcitabine],0.296
5,C=CC(=O)N1CCC[C@@H](n2nc(-c3ccc(Oc4ccccc4)cc3)c3c(N)ncnc32)C1 [ibrutinib],2.18
6,CN(Cc1cnc2nc(N)nc(N)c2n1)c1ccc(C(=O)N[C@@H](CCC(=O)O)C(=O)O)cc1 [methotrexate],1.92
7,CC1(C)CCC(c2ccc(Cl)cc2)=C(CN2CCN(c3ccc(C(=O)NS(=O)(=O)c4ccc(N[C@H](CCN5CCOCC5)CSc5ccccc5)c(S(=O)(=O)C(F)(F)F)c4)cc3)CC2)C1 [navitoclax],1.84
8,NC(=O)c1cccc2cn(-c3ccc([C@@H]4CCCNC4)cc3)nc12 [niraparib],1.2

# Same assay, conditions: 0.1 µM; days in culture: 131
row,Structure (SMILES),CTG-3D luminescence at 96 h
1,C[C@H](NC(=O)CCC(F)(F)F)C(=O)N[C@@H]1C(=O)N(CCO)c2ncccc2-c2ccccc21 [crenigacestat],2.86
2,COc1cccc2c1C(=O)c1c(O)c3c(c(O)c1C2=O)C[C@@](O)(C(=O)CO)C[C@@H]3O[C@H]1C[C@H](N)[C@H](O)[C@H](C)O1 [doxorubicin],1.47
3,C[C@]12CC[C@@H]3c4ccc(O)cc4C[C@@H](CCCCCCCCC[S+]([O-])CCCC(F)(F)C(F)(F)F)[C@H]3[C@@H]1CC[C@@H]2O (stereo partly specified) [fulvestrant],3.98
4,Nc1ccn([C@@H]2O[C@H](CO)[C@@H](O)C2(F)F)c(=O)n1 [gemcitabine],0.427
5,C=CC(=O)N1CCC[C@@H](n2nc(-c3ccc(Oc4ccccc4)cc3)c3c(N)ncnc32)C1 [ibrutinib],2.19
6,CN(Cc1cnc2nc(N)nc(N)c2n1)c1ccc(C(=O)N[C@@H](CCC(=O)O)C(=O)O)cc1 [methotrexate],2.59
7,CC1(C)CCC(c2ccc(Cl)cc2)=C(CN2CCN(c3ccc(C(=O)NS(=O)(=O)c4ccc(N[C@H](CCN5CCOCC5)CSc5ccccc5)c(S(=O)(=O)C(F)(F)F)c4)cc3)CC2)C1 [navitoclax],2.91
8,NC(=O)c1cccc2cn(-c3ccc([C@@H]4CCCNC4)cc3)nc12 [niraparib],2.4

# Same assay, conditions: 0.1 µM; days in culture: 152
row,Structure (SMILES),CTG-3D luminescence at 96 h
1,C[C@H](NC(=O)CCC(F)(F)F)C(=O)N[C@@H]1C(=O)N(CCO)c2ncccc2-c2ccccc21 [crenigacestat],2.64
2,COc1cccc2c1C(=O)c1c(O)c3c(c(O)c1C2=O)C[C@@](O)(C(=O)CO)C[C@@H]3O[C@H]1C[C@H](N)[C@H](O)[C@H](C)O1 [doxorubicin],1.57
3,C[C@]12CC[C@@H]3c4ccc(O)cc4C[C@@H](CCCCCCCCC[S+]([O-])CCCC(F)(F)C(F)(F)F)[C@H]3[C@@H]1CC[C@@H]2O (stereo partly specified) [fulvestrant],2.41
4,Nc1ccn([C@@H]2O[C@H](CO)[C@@H](O)C2(F)F)c(=O)n1 [gemcitabine],0.432
5,C=CC(=O)N1CCC[C@@H](n2nc(-c3ccc(Oc4ccccc4)cc3)c3c(N)ncnc32)C1 [ibrutinib],2.13
6,CN(Cc1cnc2nc(N)nc(N)c2n1)c1ccc(C(=O)N[C@@H](CCC(=O)O)C(=O)O)cc1 [methotrexate],2.1
7,CC1(C)CCC(c2ccc(Cl)cc2)=C(CN2CCN(c3ccc(C(=O)NS(=O)(=O)c4ccc(N[C@H](CCN5CCOCC5)CSc5ccccc5)c(S(=O)(=O)C(F)(F)F)c4)cc3)CC2)C1 [navitoclax],1.89
8,NC(=O)c1cccc2cn(-c3ccc([C@@H]4CCCNC4)cc3)nc12 [niraparib],1.52
